Experiments:
[1] = system: inflammatory bowel disease-induced mouse model (DSS); experiment: Clinical symptom analysis (body weight, DAI, survival) in 2% DSS inflammatory bowel disease-induced mouse model; assay type: in vivo
Experimental: An inflammatory bowel disease-induced mouse model using dextran sodium sulfate (DSS) was prepared by the following method.
Specifically, male C57BL/6 mice (7 to 12 weeks old, body weight of 18 to 30 g) were adapted for one week and used in the experiment. Animal rearing was carried out under the conditions of a temperature of 25° C. and a day and night cycle (12 hours night/12 hours daytime), and feed and drinking water were freely fed. All the animals were managed according to the guidelines for use of experimental animals of Seoul National University IACUC (IACUC: SNU-151223-4-1). On the day of administration of DSS (MP Biomedicals, Santa Ana, Calif., USA) (Day 0), mice were weighed and marked on the tail.
Next, male C57BL/6 mice were fed with a 2% DSS solution together with drinking water from Day 0 of the experiment to induce inflammatory bowel disease. DPBS or 10, 5, 2.5, or 1 mg/kg sodium taurodeoxycholic acid (TDCA) was administered in 0.1 ml by oral gavage one time a day from Day 1 of the experiment. Alternatively, 0.1 ml of 5 mg/kg TDCA was administered one time a day by oral gavage 2 days before DSS administration.
The 2% DSS solution was used after being prepared by dissolving DSS powder in sterilized distilled water and filtering the solution. The TDCA was dissolved in DPBS (Dulbecco's phosphate-buffered saline) and used.
The disease activity indexes (DAI) including body weight, body weight loss, stool consistency, and bloody stool were measured daily. DAI was scored according to the following [Table 1].
(§1) Specifically, female C57BL/6 mice were fed with a 2% DSS solution or DPBS together with drinking water for 10 days from Day 0 of the experiment by the same method as that described in <Example 1>, DPBS or 5 mg/kg TDCA was administered to the mice by oral gavage one time a day for 11 days from Day 1 of the experiment, and the body weight and DAI were measured daily. As a control, mice freely fed with drinking water were used.
as §1, with “or 10, 5, 2.5, or 1” for “or 5”
as §1, with “solution” for “solution or DPBS”, “7” for “10”, “gavage” for “gavage one time a day for 11 days”, “DSS administration or 2 days before DSS administration,” for “the experiment,”
as §1, with “Specifically, C57BL/6-Gpbar1^tm1(KOMP)Vlcg mice (TGR5 KO, KOMP Repository, The Knockout Mouse Project, University of California, Davis, Calif.) were used as TGR5 knockout (TGR5^−/−) female C57BL/6 mice. The TGR5^−/− female C57BL/6 mice or TGR5 normal (WT)” for “Specifically,”, “1>.” for “1>,”

IL-6 = experiment: Pro-inflammatory cytokine ELISA of colon tissue, IL-6; assay type: in vivo, mouse; conditions: for IL-6 in the colon tissue: Day 7
Experimental: (§2) In order to evaluate the clinical symptoms-improving efficacy in comparison with those by clinical prescription drugs, inflammatory bowel disease was induced by 7-day or repeated administration of 3% or 2.5% DSS solution, and tofacitinib 10 mg/kg, 5-ASA 100 mg/kg or 200 mg/kg, prednisolone 1 mg/kg, and TDCA 2.5 mg/kg were administered one time a day from the start date of DSS administration. From the start date of DSS administration, TDCA 2.5 mg/kg was administered one time a day (QD), two times a day (BID), and three times a day (TID).
(§3) A colon was obtained from a mouse which had been subjected to an experiment by the same method as that described in <Example 2>, the peripheral colon was cut into 2 cm in length and the weight was recorded. Next, the colon was chopped into 1 mm pieces and frozen on ice, treated with 500 μl of cold DPBS containing protease inhibitor (Roche, 11836170001, Basel, Switzerland), and homogenized for 10 to 20 seconds using an electric homogenizer (IKA T10 Basic, Wilmington, SE, USA). The homogenate was centrifuged at 4° C. for 10 minutes at 12,000×g to obtain a supernatant. ELISA analysis was performed using the obtained supernatant, IL-6 DuoSet ELISA kit (R & D systems, USA), IL-1β DuoSet ELISA kit (R & D systems, USA), and TNF-α DuoSet ELISA kit (R & D systems, USA) according to the manufacturer's procedure to confirm the production of pro-inflammatory cytokines.
as §1, with “solution” for “solution or DPBS”, “7” for “10”, “6” for “11”, “used. Next, the mice were sacrificed on Day 7 of the experiment by the same method as that described in <Example 3>, and inflammatory cell and proinflammatory cytokine analysis was performed.” for “used.”
(§4) Specifically, female C57BL/6 mice were fed with a 2% DSS solution together with drinking water for 7 days from Day 0 of the experiment by the same method as that described in <Example 1>, DPBS or 5 mg/kg TDCA was administered to the mice by oral gavage from Day 1 of DSS administration or 2 days before DSS administration, and the body weight and DAI were measured daily. As a control, mice freely fed with drinking water were used. Next, the mice were sacrificed on Day 7 of the experiment by the same method as that described in <Example 3>, and the inflammatory cell and proinflammatory cytokine analysis was performed.

IL-1β = experiment: Pro-inflammatory cytokine ELISA of colon tissue, IL-1β; assay type: in vivo, mouse; conditions: for IL-1β in the colon tissue: Day 7
Experimental: as §2, §3
as §4, with “oral gavage one time a day for 6 days from Day” for “oral gavage from Day”, “1 of the experiment, and the” for “1 of DSS administration or 2 days before DSS administration, and the”, “3>, and inflammatory cell” for “3>, and the inflammatory cell”
as §4

[2] = 2% DSS 7 days, 5 mg/kg TDCA oral gavage, FIG. 3B
[3] = 3% DSS 7 days, TDCA 2.5 mg/kg vs tofacitinib 10 mg/kg and 5-ASA 100 mg/kg
[4] = DSS+TDCA group: 5 mg/kg TDCA from Day 1 of DSS, FIG. 7B
[5] = DSS+preTDCA group: 5 mg/kg TDCA from 2 days before DSS, FIG. 7B

SMILES: C[C@H](CCC(=O)NCCS(=O)(=O)O)[C@H]1CC[C@H]2[C@@H]3CC[C@@H]4C[C@H](O)CC[C@]4(C)[C@H]3C[C@H](O)[C@]12C [TDCA, sodium taurodeoxycholic acid]
- initial body weight lost on Day 10 ([1]; 2% DSS 10 days, 5 mg/kg TDCA oral gavage one time a day for 11 days from Day 1, DSS+DPBS group about 15%, FIG. 1A): about 5%
- survival rate ([1]; 2% DSS 10 days, 5 mg/kg TDCA oral gavage one time a day, DSS+DPBS group 60%, FIG. 1C): 100%
- start of body weight loss later than the DSS+DPBS group ([1]; 2% DSS 10 days, 5 mg/kg TDCA oral gavage one time a day, FIG. 1A): about 2 days
- DAI (disease activity index) change ([1]; 2% DSS 10 days, 5 mg/kg TDCA oral gavage one time a day, FIG. 1B): lower than that in the DSS+DPBS group
- DAI change ([1]; 2% DSS 10 days, 10, 5, 2.5, or 1 mg/kg TDCA, FIG. 4B): lower than that in the DSS+DPBS group
- degree of alleviation of body weight loss ([1]; 2% DSS 10 days, TDCA at 5 and 10 mg/kg, among 10, 5, 2.5, 1 mg/kg, FIG. 4A): superior
- DAI change ([1]; 2% DSS 10 days, TDCA at 10, 5, and 2.5 mg/kg, among 10, 5, 2.5, 1 mg/kg, FIG. 4B): DAI was lower
- DAI change ([1]; DSS+TDCA group: 5 mg/kg TDCA from Day 1 of DSS administration, 2% DSS 7 days, FIG. 6B): similarly decreased
- DAI change ([1]; DSS+preTDCA group: 5 mg/kg TDCA from 2 days before DSS administration, 2% DSS 7 days, FIG. 6B): similarly decreased
- initial body weight lost on Day 10 ([1]; TGR5 normal (WT) mice, 2% DSS 10 days, 5 mg/kg TDCA oral gavage one time a day, FIG. 8A): about 5%
- DAI change ([1]; TGR5 normal (WT) mice, 2% DSS 10 days, 5 mg/kg TDCA, FIG. 8B): lower than those in the other groups
- survival rate ([1]; TGR5 normal (WT) mice, 2% DSS 10 days, 5 mg/kg TDCA, FIG. 8C): 100%
- IL-6 in the colon tissue (IL-6; [2]): decreased
- concentration of IL-6 in the colon tissue, compared with clinical prescription drugs (IL-6; [3]): equivalent to those by tofacitinib 10 mg/kg and 5-ASA 100 mg/kg
- IL-6 in the colon tissue (IL-6; [4]): decreased
- IL-6 in the colon tissue (IL-6; [5]): decreased
- IL-1β in the colon tissue (IL-1β; [2]): decreased
- concentration of IL-1β in the colon tissue, compared with clinical prescription drugs (IL-1β; [3]): more effectively suppressed the concentration of IL-1β than tofacitinib 10 mg/kg and 5-ASA 100 mg/kg
- IL-1β in the colon tissue (IL-1β; [4]): decreased
- IL-1β in the colon tissue (IL-1β; [5]): decreased
